Results published in patent US20120028988A1, “USE OF PYRIDAZINONE COMPOUND FOR CONTROL OF HARMFUL ARTHROPOD PESTS” (SUMITOMO CHEMICAL COMPANY, LIMITED, priority 2009, published 2012).

System: Blattalla germanica
Assay: Test Example 6: treated filter paper with sucrose, Blattalla germanica male adults, mortality index
Type: in vivo
Settings: 500 ppm active ingredient, 0.7 mL on filter paper with sucrose; 2 male adults; after 6 days
Description: (§1) The preparation of the present composition obtained by Preparation Example 14 was diluted with water so as to have a concentration of active ingredient of 500 ppm, to prepare a drug solution for test.
A filter paper with a diameter of 5.5 cm was placed in the bottom of a polyethylene cup, then 0.7 mL of the above drug solution for test was added dropwise on the filter paper, and 30 mg of sucrose was uniformly added as a feed. 2 male adults of Blattalla germanica were released in the polyethylene cup, and the lid was closed. The number of dead insects was calculated after 6 days.
The mortality was calculated by the following equation and was evaluated by the indexes of 4: mortality 100%, 2:50%, and 0:0%.
Mortality (%)=(Number of Dead Insects/Number of Test Insects)×100
In the case of `CCc1ccccc1-c1c(OC(=O)c2ccccc2)cnn(C)c1=O` [I-b-1, 5-benzoyloxy-4-(2-ethylphenyl)-2-methyl-3(2H)-pyridazinone], the “index (mortality)” value is reported as 4 (mortality 100%).

System: Spodoptera litura
Assay: whole plant or invertebrate
Type: in vivo
Settings: 144 h, 500 ppm active ingredient, 20 mL/cup sprayed on Brassicae oleracea, fourth-stage larvae, 25° C., after 6 days, read-out: mortality of the insects
Description: as §1
The drug solution for test was sprayed at a rate of 20 mL/cup on Brassicae oleracea at the 5 to 6 leaf stages planted in a polyethylene cup. After the drug solution dried, 10 fourth-stage larvae of Spodoptera litura were released. Brassicae oleracea at the 5 to 6 leaf stage planted in this polyethylene cup was covered with an another polyethylene cup (volume of 400 mL). This was stored at 25° C., and the number of surviving insects was counted after 6 days, then the mortality of the insects was calculated by the following equation.
(§2) Mortality of Insects (%)=(Number of Dead Insects/Number of Test Insects)×100
With `Cc1ccc(-c2ccc(Cl)cc2)cc1-c1c(O)cnn(C)c1=O` [I-a-59, 4-[5-(4-chlorophenyl)-2-methylphenyl]-5-hydroxy-2-methyl-3(2H)-pyridazinone] the mortality at 500 ppm was ≥ 80%.

System: not given
Assay: not given
Settings: not given
In the case of `C#Cc1cc(C)cc(C)c1-c1c(O)c(C)nn(C)c1=O` [I-a-44, 4-(2-ethynyl-4,6-dimethylphenyl)-5-hydroxy-2,6-dimethyl-3(2H)-pyridazinone], the melting point is reported as 179 to 181 °C.
`Cc1ccc(Br)cc1-c1c(O)c(C)nn(C)c1=O` [I-a-45, 4-(5-bromo-2-methylphenyl)-5-hydroxy-2,6-dimethyl-3(2H)-pyridazinone] showed a melting point of 217 to 218 °C.
Molecule `CCc1cc(C)c(Br)c(CC)c1-c1c(O)c(C)nn(C)c1=O` [I-a-47, 4-(3-bromo-2,6-diethyl-4-methylphenyl)-5-hydroxy-2,6-dimethyl-3(2H)-pyridazinone] has a melting point of 235 to 236 °C.
Work on `CCc1cc(C)c(-c2ccc(Cl)cc2)c(CC)c1-c1c(O)c(C)nn(C)c1=O` [I-a-48, 4-[3-(4-chlorophenyl)-2,6-diethyl-4-methylphenyl)-5-hydroxy-2,6-dimethyl-3(2H)-pyridazinone] yielded a melting point of 248 to 250 °C.
For `CCc1cc(CC)c(-c2c(O)c(C)nn(C)c2=O)c(CC)c1Cl` [I-a-49, 4-(3-chloro-2,4,6-triethylphenyl)-5-hydroxy-2,6-dimethyl-3(2H)-pyridazinone], the melting point was 225 to 226 °C.
Work on `CCc1cc(CC)c(-c2c(O)c(C)nn(C)c2=O)c(CC)c1Br` [I-a-50, 4-(3-bromo-2,4,6-triethylphenyl)-5-hydroxy-2,6-dimethyl-3(2H)-pyridazinone] yielded a melting point of 225 to 226 °C.
With `CCc1c(Cl)c(CC)c(-c2c(O)c(C)nn(C)c2=O)c(CC)c1Cl` [I-a-71, 4-(3,5-dichloro-2,4,6-triethylphenyl)-5-hydroxy-2,6-dimethyl-3(2H)-pyridazinone] the melting point was 266 to 267 °C.
`CCc1cc(CC)c(-c2c(O)c(C)nn(C)c2=O)c(CC)c1I` [I-a-72, 5-hydroxy-2,6-dimethyl-4-(2,4,6-triethyl-3-iodophenyl)-3(2H)-pyridazinone] gave a melting point of 217 to 219 °C.
Molecule `CCc1cc(C)c(F)c(CC)c1-c1c(O)c(C)nn(C)c1=O` [I-a-74, 4-(2,6-diethyl-3-fluoro-4-methylphenyl)-5-hydroxy-2,6-dimethyl-3(2H)-pyridazinone] has a melting point of 193 to 195 °C.
`CCc1cc(C)c(Br)c(CC)c1-c1c(OC(=O)OC)c(C)nn(C)c1=O` [I-b-50, 4-(3-bromo-2,6-diethyl-4-methylphenyl)-5-methoxycarbonyloxy-2,6-dimethyl-3(2H)-pyridazinone] gave a melting point of 113 to 115 °C.

System: Plutella xylostella
Assay: whole plant or invertebrate
Type: in vivo
Settings: 120 h, 500 ppm active ingredient, 20 mL/cup sprayed on Brassicae oleracea, second-stage larvae, 25° C., after 5 days, read-out: mortality of the insects
Description: as §1
The drug solution for test was sprayed at a rate of 20 mL/cup on Brassicae oleracea at the 3 leaf stage planted in a polyethylene cup. After the drug solution dried, leaves and stems were cut out and placed in a 50 mL cup. 5 second-stage larvae of Plutella xylostella were released there, and the lid was closed. This cup was stored at 25° C., and the number of surviving insects was counted after 5 days, and the mortality of the insects was calculated by the following equation.
as §2
For `Cc1ccc(-c2ccc(F)cc2)cc1-c1c(O)c(C)nn(C)c1=O` [I-a-46, 4-[5-(4-fluorophenyl)-2-methylphenyl]-5-hydroxy-2,6-dimethyl-3(2 H)-pyridazinone], the mortality at 500 ppm was ≥ 80%.
With `Cc1ccc(-c2ccc(Cl)cc2)cc1-c1c(O)cnn(C)c1=O` [I-a-59, 4-[5-(4-chlorophenyl)-2-methylphenyl]-5-hydroxy-2-methyl-3(2H)-pyridazinone] the mortality at 500 ppm was ≥ 80%.

System: Frankliniella occidentalis
Assay: Test Example 10: spray on cucumber, Frankliniella occidentalis larvae on cut leaves, preventive value
Type: in vivo
Settings: 500 ppm active ingredient, 10 mL/cup sprayed on cucumber; larvae on cut first true leaves; after 7 days
Description: The drug solution for test was sprayed at a rate of 10 mL/cup on cucumber at the second true leaf-expansion stage planted in a polyethylene cup. After the drug solution dried, the first true leaves were cut out and placed in a polyethylene cup, then 20 larvae of Frankliniella occidentalis were released, and the lid was closed. After 7 days, the number of surviving larvae on the leaves of cucumber was investigated, and the preventive value was calculated by the following equation. Preventive Value (%)={1−(Cb×Tai)/(Cai×Tb)}×100 Here, the letters in the equation represent the following meaning. Cb: Number of Insects in Untreated Area Before Treatment Cai: Number of Insects in Untreated Area at Observation Tb: Number of Insects in Treated Area Before Treatment Tai: Number of Insects in Treated Area at Observation
With `Cc1ccc(-c2ccc(Cl)cc2)cc1-c1c(O)c(C)nn(C)c1=O` [I-a-40] the preventive value was ≥ 90%.
